Some test systems named below: A498 renal; A549 NSCLC; HCC-2998 colon; HT29 colon; MCF7 breast; OVCAR-8 ovarian; RPMI-8226 leukemia; SF-539 CNS; SK-MEL-5 melanoma; T-47D breast.
Common to all, as to experiment: NCI anticancer screen, dose series, 48 h

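96-well plates; 48 h exposure; 5 concentrations. Endpoints by linear interpolation between flanking doses. Not reached: highest tested concentration assigned. Here, GI50 denotes the concentration required for 50% inhibition of growth. At the TGI there is no net growth.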 A value given as a limit tells only on which side of the number the result lay.

For the compound `Cn1cc(C2=C(c3cn(CCCCC(=N)N)c4ccccc34)C(=O)NC2=O)c2ccccc21`, the GI50 in the assay with A498 renal is more than 25 µM; in the assay with A549 NSCLC, more than 25 µM; in the assay on HCC-2998 colon, more than 25 µM; with HT29 colon, more than 22.9 µM; with MCF7 breast, 10.9 µM; in the assay on OVCAR-8 ovarian, more than 25 µM. For the same compound, the GI50 in the assay on RPMI-8226 leukemia is more than 25 µM; in the assay on SF-539 CNS, more than 21.6 µM; in the assay with SK-MEL-5 melanoma it was more than 23.6 µM; with T-47D breast it was more than 25 µM. Also, the TGI in the assay with A498 renal, with A549 NSCLC, in the assay with HCC-2998 colon, in the assay on HT29 colon, with MCF7 breast and in the assay on OVCAR-8 ovarian was more than 25 µM each time. The TGI in the assay with RPMI-8226 leukemia, in the assay with SF-539 CNS, in the assay with SK-MEL-5 melanoma and in the assay with T-47D breast was more than 25 µM throughout.

On to `Cc1c(Cl)cccc1NC(=O)c1sc2nc3c(cc2c1N)CCCC3`, for which the GI50 in the assay with A498 renal is 0.413 µM; in the assay on A549 NSCLC, 0.984 µM; in the assay with HCC-2998 colon it was more than 100 µM; in the assay on HT29 colon, 0.369 µM; with MCF7 breast it was 0.274 µM; in the assay with OVCAR-8 ovarian, 3.42 µM. For the same compound, the GI50 in the assay with RPMI-8226 leukemia was 1.61 µM; in the assay with SF-539 CNS it was 0.328 µM; in the assay with SK-MEL-5 melanoma, 0.513 µM; with T-47D breast, 0.402 µM. Besides, the TGI in the assay on A498 renal, in the assay with A549 NSCLC, in the assay on HCC-2998 colon, with HT29 colon, in the assay on MCF7 breast and in the assay with OVCAR-8 ovarian was more than 100 µM throughout. Moreover, the TGI in the assay with RPMI-8226 leukemia, in the assay with SK-MEL-5 melanoma and in the assay on T-47D breast was more than 100 µM throughout.

The values are drawn from PubChem BioAssay (NCI).
